System: washed mouse platelets
Assay: Clot contraction assay, time-lapse imaging of washed mouse platelets with thrombin, fibrinogen and CaCl2
Assay type: cell-based
Details: for AUC / Average Velocity / Clot Contraction Extent / Lag time / PHASE 1 % Contraction / PHASE 1 Rate 1 / PHASE 1 t1 / PHASE 2 % Contraction / PHASE 2 Rate 2 / PHASE 2 t2 / PHASE 3 % Contraction / PHASE 3 Rate 3: fibrinogen 250 μg/mL
[1] = increased thrombin concentration, 10-200 mU/mL
[2] = thrombin 10 mU/mL, CaCl2 0.5 mM
[3] = thrombin 20 mU/mL, CaCl2 0.5 mM
[4] = thrombin 30 mU/mL, CaCl2 0.5 mM
[5] = thrombin 50 mU/mL, CaCl2 0.5 mM
[6] = thrombin 100 mU/mL, CaCl2 0.5 mM
[7] = CaCl2 0.1 mM, thrombin 20 mU/mL
[8] = CaCl2 0.5 mM, thrombin 20 mU/mL

Compound: Thrombin
- Effect on extent of clot contraction [1]: remained unchanged
- Effect on lag time [1]: decreased
- Increase of Phase 1 (initiation) rate (over the thrombin concentration range tested): ~5 fold
- AUC [2]: 5.62 AU
- Average Velocity [2]: 0.82 %/min
- Clot Contraction Extent [2]: 80.19%
- Lag time [2]: 28.33 min
- PHASE 1 % Contraction [2]: 4.93%
- PHASE 1 Rate 1 [2]: 4.27 ×10^−3 %/min
- PHASE 1 t1 [2]: 13.33 min
- PHASE 2 % Contraction [2]: 23.95%
- PHASE 2 Rate 2 [2]: 1.02 %/min
- PHASE 2 t2 [2]: 36.00 min
- PHASE 3 % Contraction [2]: 51.32%
- PHASE 3 Rate 3 [2]: 3.93 ×10^−2 %/min
- AUC [3]: 4.90 AU
- Average Velocity [3]: 0.90 %/min
- Clot Contraction Extent [3]: 88.45%
- Lag time [3]: 19.33 min
- PHASE 1 % Contraction [3]: 4.66%
- PHASE 1 Rate 1 [3]: 4.67 ×10^−3 %/min
- PHASE 1 t1 [3]: 11.33 min
- PHASE 2 % Contraction [3]: 31.74%
- PHASE 2 Rate 2 [3]: 1.33 %/min
- PHASE 2 t2 [3]: 36.33 min
- PHASE 3 % Contraction [3]: 52.05%
- PHASE 3 Rate 3 [3]: 3.63 ×10^−2 %/min
- AUC [4]: 4.10 AU
- Average Velocity [4]: 0.94 %/min
- Clot Contraction Extent [4]: 92.41%
- Lag time [4]: 15.33 min
- PHASE 1 % Contraction [4]: 6.03%
- PHASE 1 Rate 1 [4]: 6.67 ×10^−3 %/min
- PHASE 1 t1 [4]: 8.67 min
- PHASE 2 % Contraction [4]: 20.91%
- PHASE 2 Rate 2 [4]: 1.67 %/min
- PHASE 2 t2 [4]: 22.00 min
- PHASE 3 % Contraction [4]: 65.45%
- PHASE 3 Rate 3 [4]: 2.70 ×10^−2 %/min
- AUC [5]: 3.69 AU
- Average Velocity [5]: 0.94 %/min
- Clot Contraction Extent [5]: 92.51%
- Lag time [5]: 10.67 min
- PHASE 1 % Contraction [5]: 6.96%
- PHASE 1 Rate 1 [5]: 27.33 ×10^−3 %/min
- PHASE 1 t1 [5]: 6.67 min
- PHASE 2 % Contraction [5]: 16.04%
- PHASE 2 Rate 2 [5]: 1.97 %/min
- PHASE 2 t2 [5]: 18.00 min
- PHASE 3 % Contraction [5]: 69.51%
- PHASE 3 Rate 3 [5]: 3.10 ×10^−2 %/min
- AUC [6]: 3.32 AU
- Average Velocity [6]: 0.97 %/min
- Clot Contraction Extent [6]: 94.93%
- Lag time [6]: 9.00 min
- PHASE 1 % Contraction [6]: 6.55%
- PHASE 1 Rate 1 [6]: 21.33 ×10^−3 %/min
- PHASE 1 t1 [6]: 5.00 min
- PHASE 2 % Contraction [6]: 19.72%
- PHASE 2 Rate 2 [6]: 2.02 %/min
- PHASE 2 t2 [6]: 18.67 min
- PHASE 3 % Contraction [6]: 68.67%
- PHASE 3 Rate 3 [6]: 3.43 ×10^−2 %/min

Compound: [Ca+2].[Cl-].[Cl-] [CaCl2]
- AUC [7]: 3.78 AU
- Average Velocity [7]: 0.98 %/min
- Clot Contraction Extent [7]: 97.02%
- Lag time [7]: 15.00 min
- PHASE 1 % Contraction [7]: 2.91%
- PHASE 1 Rate 1 [7]: 5.00 ×10^−3 %/min
- PHASE 1 t1 [7]: 7.00 min
- PHASE 2 % Contraction [7]: 29.63%
- PHASE 2 Rate 2 [7]: 1.51 %/min
- PHASE 2 t2 [7]: 27.33 min
- PHASE 3 % Contraction [7]: 64.48%
- PHASE 3 Rate 3 [7]: 1.51 ×10^−2 %/min
- AUC [8]: 3.93 AU
- Average Velocity [8]: 0.96 %/min
- Clot Contraction Extent [8]: 95.36%
- Lag time [8]: 15.67 min
- PHASE 1 % Contraction [8]: 3.27%
- PHASE 1 Rate 1 [8]: 4.67 ×10^−3 %/min
- PHASE 1 t1 [8]: 8.33 min
- PHASE 2 % Contraction [8]: 27.00%
- PHASE 2 Rate 2 [8]: 1.43 %/min
- PHASE 2 t2 [8]: 28.00 min
- PHASE 3 % Contraction [8]: 65.48%
- PHASE 3 Rate 3 [8]: 1.43 ×10^−2 %/min
- AUC (CaCl2 1 mM, thrombin 20 mU/mL): 3.69 AU
- Average Velocity (CaCl2 1 mM, thrombin 20 mU/mL): 0.99 %/min
- Clot Contraction Extent (CaCl2 1 mM, thrombin 20 mU/mL): 98.08%
- Lag time (CaCl2 1 mM, thrombin 20 mU/mL): 17.67 min
- PHASE 1 % Contraction (CaCl2 1 mM, thrombin 20 mU/mL): 5.50%
- PHASE 1 Rate 1 (CaCl2 1 mM, thrombin 20 mU/mL): 5.00 ×10^−3 %/min
- PHASE 1 t1 (CaCl2 1 mM, thrombin 20 mU/mL): 12.33 min
- PHASE 2 % Contraction (CaCl2 1 mM, thrombin 20 mU/mL): 31.17%
- PHASE 2 Rate 2 (CaCl2 1 mM, thrombin 20 mU/mL): 1.87 %/min
- PHASE 2 t2 (CaCl2 1 mM, thrombin 20 mU/mL): 30.00 min
- PHASE 3 % Contraction (CaCl2 1 mM, thrombin 20 mU/mL): 61.41%
- PHASE 3 Rate 3 (CaCl2 1 mM, thrombin 20 mU/mL): 1.87 ×10^−2 %/min
- Differences in clot contraction (calcium between 0.1 and 1 mM): limited differences

— patent publication US20240044922A1, “DEVICE AND METHODS FOR MEASURING PLATELET-FIBRIN CLOT CONTRACTION KINETICS” (University of Kentucky Research Foundation, priority 2022, published 2024)
